Where two headings read alike, the source gives them in different places. Marks after values point to notes of the source that are not given here.
Tests used:
[1] = ligand 30 µmol kg^-1 ip at 1 h after iv ^238Pu(IV) citrate, kill at 24 h, reported previously, cited from earlier work; for percent of injected ^238Pu at 24 h, excreta: feces and GI contents / percent of injected ^238Pu at 24 h, excreta: urine 0-24 h / percent of injected ^238Pu at 24 h, tissues: kidneys: pooled samples
[2] = Promoting excretion of 238Pu(IV) in mice by injected ligands; format: in vivo; settings: for percent of injected ^238Pu ± SD at 24 h, tissues: liver / percent of injected ^238Pu ± SD at 24 h, tissues: skeleton / percent of injected ^238Pu ± SD at 24 h, tissues: soft tissue / percent of injected ^238Pu ± SD at 24 h, whole body / percent of injected ^238Pu at 24 h, excreta: feces and GI contents / percent of injected ^238Pu at 24 h, excreta: urine 0-24 h / percent of injected ^238Pu at 24 h, tissues: kidneys: ligand 30 µmol kg^-1 ip at 1 h after iv ^238Pu(IV) citrate, kill at 24 h; for percent of injected ^238Pu at 24 h, excreta: feces and GI contents / percent of injected ^238Pu at 24 h, excreta: urine 0-24 h / percent of injected ^238Pu at 24 h, tissues: kidneys: pooled samples
Source text: Animal studies were completed using methods detailed in Radiation Protection Dosimetry, in press, P. W. Durbin et al., "In Vivo Chelation of Am(III), Pu(IV), Np(V) and U(VI) in Mice by TREN-(Me-3,2-HOPO)"; Radiation Protection Dosimetry, 17, No. 1, 1989, p. 351, P. W. Durbin et al., "Removal of ^238Pu(IV) from Mice by Polycatechoylate, -Hydroxamate or -Hydroxypyridinonate Ligands"; Radiation Research, 99, 1984, p. 85, P. W. Durbin et al., "Specific Sequestering Agents for the Actinides ..."; Radiation Research, 99, 1984, p. 106, P. W. Durbin et al., "Removal of Pu and Am from Beagles and Mice ..."; Radiation Research, 81, 1980, p. 170, R. D. Lloyd et al., and P. W. Durbin et al., "Specific Sequestering Agents for the Actinides ...". The foregoing articles are hereby incorporated by reference.
Radionuclides used in the animal studies came from a variety of sources. However, they can be purchased commercially. The ^238Pu(IV) citrate and ^241Am(III) citrate solutions were prepared for animal injection by 8- to 10-fold dilution with 0.14M NaCl (pH 4) of concentrated stock solutions (0.08M sodium citrate buffer) that had been held in frozen storage at Lawrence Berkeley Laboratory (hereinafter LBL) for several years. [The ^238Pu(IV) was originally obtained from D. R. Atherton at the University of Utah Radiobiology Laboratory, Salt Lake City. The ^241Am(III) solution had been obtained many years earlier from the LBL Actinide Chemistry group.]
The novel chelating agents of the present invention and comparative compounds were tested for their effectiveness in promoting excretion ^238Pu(IV) in nice by injected ligands as follows. Mice, in groups of five, each received an intravenous injection of 1850 Bq ^238Pu(IV) in 0.2 mL of citrate buffer. One hour later, 30 µmol/kg of ligand was injected intraperitoneally in 0.5 mL of saline. The mice were killed 24 hours after the Pu injection, frozen, and dissected after partial thawing. The ^238Pu in skeleton, soft tissues, and separated excreta was determined by counting the ^234U L x-rays. Results of removal of ^238Pu(IV) from mice by injected ligands are summarized in Table 3, which also includes data for CaNa3-DTPA and other reference ligands and the Pu-injected controls. […] While the case of multidente 1,2-HOPO and catechoylamide chelating agents, octadentates are always better chelating agents than the corresponding hexadentates and tetradentates.

[3] = In vivo acute toxicity test of injected ligands in mice
Method: The test of acute toxicity of novel and comparative ligands was carried out as follows. Groups of five mice were each given a single i.p. injection of […] of ligand and a day for 10 days or given two i.p. injections of […] in 8 hours. The ligand was dissolved in 0.5 to 1.0 ml of saline at pH 7 to 8. After a period of observation, the mice were killed; selected tissues were removed and fixed for histopathological examination; and unusual findings at autopsy were recorded. […]

[4] = protocol I, 100 µmol kg^-1 x 10 daily i.p., study length 11 d
[5] = protocol I, 100 µmol kg^-1 x 10 daily i.p., study length 21 d
[6] = protocol II, 500 µmol kg^-1 x 2 in 8 h, study length 11 d
[7] = protocol IA, 100 µmol kg^-1 x 2 daily, study length 3 d
[8] = protocol IA, 100 µmol kg^-1 x 2 daily, study length 11 d
[9] = protocol II, 500 µmol kg^-1 x 2 in 8 h, study length 8 d

Structure (SMILES) | percent of injected ^238Pu at 24 h, excreta: feces and GI contents [1] | percent of injected ^238Pu at 24 h, excreta: urine 0-24 h [1] | percent of injected ^238Pu at 24 h, tissues: kidneys [1] | percent of injected ^238Pu ± SD at 24 h, tissues: liver [1] | percent of injected ^238Pu ± SD at 24 h, tissues: skeleton [1] | percent of injected ^238Pu ± SD at 24 h, tissues: soft tissue [1] | percent of injected ^238Pu ± SD at 24 h, whole body [1] | percent of injected ^238Pu ± SD at 24 h, tissues: liver [2] | percent of injected ^238Pu ± SD at 24 h, tissues: skeleton [2] | percent of injected ^238Pu ± SD at 24 h, tissues: soft tissue [2] | percent of injected ^238Pu ± SD at 24 h, whole body [2] | percent of injected ^238Pu at 24 h, excreta: feces and GI contents [2] | percent of injected ^238Pu at 24 h, excreta: urine 0-24 h [2] | percent of injected ^238Pu at 24 h, tissues: kidneys [2] | also measured
O=C(NCCCN(CCCCN(CCCNC(=O)c1cccc(=O)n1O)C(=O)c1cccc(=O)n1O)C(=O)c1cccc(=O)n1O)c1cccc(=O)n1O [3,4,3-LI(1,2-HOPO)] | 57% of injected ^238Pu | 23% of injected ^238Pu | 0.2% of injected ^238Pu | 8.9 ± 1.7^d percent of injected ^238Pu | 7.5 ± 0.7^d percent of injected ^238Pu | 1.6 ± 0.6^d percent of injected ^238Pu | 18 ± 1.7^d percent of injected ^238Pu |  |  |  |  |  |  |  | 
O=C(NCCCCN(CCCNC(=O)c1cccc(=O)n1O)C(=O)c1cccc(=O)n1O)c1cccc(=O)n1O [3,4-LI(1,2-HOPO)] | 58% of injected ^238Pu | 7.9% of injected ^238Pu | 0.6% of injected ^238Pu | 18 ± 4.8% of injected ^238Pu | 9.9 ± 3.6% of injected ^238Pu | 5.8 ± 1.3% of injected ^238Pu | 34 ± 9.2% of injected ^238Pu |  |  |  |  |  |  |  | 
Cn1ccc(C(=O)NCCOCCNC(=O)c2ccn(C)c(=O)c2O)c(O)c1=O [5-LI-O-Me-3,2-HOPO, 1,5-bis[(3-hydroxy-1-methyl-2-oxo-1,2-dihydropyridin-4-yl)carboxamino]-3-oxypentane] |  |  |  |  |  |  |  | 2.1 ± 0.3^d percent of injected ^238Pu | 11 ± 1.6% of injected ^238Pu | 1.6 ± 0.2^d percent of injected ^238Pu | 15 ± 2.1^d percent of injected ^238Pu | 61.7% of injected ^238Pu | 23.5% of injected ^238Pu | 0.2% of injected ^238Pu | Pu removal (in words) ([2]; injected ligands, 30 µmol/kg intraperitoneally one hour after ^238Pu(IV)): as effective or more effective than the hexadentate and octadentate chelating agents; toxicity (in words) ([3]; even at the relatively high dosage of 2x500 µmol/kg in 8 hours): low toxicity; no. of survivors [3, 4]: 5; percent control mean + SD: body weight [3, 4]: 103 ± 5 percent control; percent control mean + SD: kidney weight [3, 4]: 100 ± 19 percent control; percent control mean + SD: plasma urea N [3, 4]: 83 ± 5 percent control; no. of survivors [3, 5]: 5; percent control mean + SD: body weight [3, 5]: 101 ± 5 percent control; percent control mean + SD: kidney weight [3, 5]: 111 ± 5 percent control; percent control mean + SD: plasma urea N [3, 5]: 86 ± 18 percent control; no. of survivors [3, 6]: 10; percent control mean + SD: body weight [3, 6]: 100 ± 2 percent control; percent control mean + SD: kidney weight [3, 6]: 108 ± 10 percent control; percent control mean + SD: plasma urea N [3, 6]: 77 ± 10 percent control
Cn1ccc(C(=O)NCCCCCCNC(=O)c2ccn(C)c(=O)c2O)c(O)c1=O [6-LI-Me-3,2-HOPO, 1,6-bis[(3-hydroxy-1-methyl-2-oxo-1,2-dihydropyridin-4-yl)carboxamindo]hexane] |  |  |  |  |  |  |  | 6.5 ± 3.7^d percent of injected ^238Pu | 12 ± 1.8% of injected ^238Pu | 3.7 ± 1.8% of injected ^238Pu | 23 ± 4.9^d percent of injected ^238Pu | 62.9% of injected ^238Pu | 14.4% of injected ^238Pu | 0.5% of injected ^238Pu | no. of survivors [3, 7]: 5; percent control mean + SD: body weight [3, 7]: 83 ± 3 percent control; percent control mean + SD: kidney weight [3, 7]: 132 ± 11 percent control; percent control mean + SD: plasma urea N [3, 7]: 343 ± 140 percent control; no. of survivors [3, 8]: 3; percent control mean + SD: body weight [3, 8]: 101 ± 5 percent control; percent control mean + SD: kidney weight [3, 8]: 112 ± 13 percent control; percent control mean + SD: plasma urea N [3, 8]: 92 ± 6 percent control
CC(=O)N(O)CCCCCNC(=O)CCC(=O)N(O)CCCCCNC(=O)CCC(=O)N(O)CCCCCN [DFO, desferrioxamine B] | 15.1% of injected ^238Pu | 38% of injected ^238Pu | 1.8% of injected ^238Pu | 19 ± 13% of injected ^238Pu | 20 ± 11% of injected ^238Pu | 4.5 ± 1.4% of injected ^238Pu | 45 ± 2.5% of injected ^238Pu |  |  |  |  |  |  |  | 
CC(=O)N(O)CCCCCNC(=O)CCC(=O)N(O)CCCCCNC(=O)CCC(=O)N(O)CCCCCNC(=O)c1cccc(=O)n1O [DFO-(1,2-HOPO)] | 46.7% of injected ^238Pu | 9.5% of injected ^238Pu |  | 5.1 ± 2.2^d percent of injected ^238Pu | 6.0 ± 0.5^d percent of injected ^238Pu | 2.3 ± 0.5^d percent of injected ^238Pu | 13 ± 2.9^d percent of injected ^238Pu |  |  |  |  |  |  |  | 
CC(=O)N(O)CCCCCNC(=O)CCC(=O)N(O)CCCCCNC(=O)CCC(=O)N(O)CCCCCNC(=O)c1ccn(C)c(=O)c1O [DFO-Me-3,2-HOPO] | 26.4% of injected ^238Pu | 21% of injected ^238Pu | 3.0% of injected ^238Pu | 13 ± 3.5% of injected ^238Pu | 17 ± 2.4% of injected ^238Pu | 19 ± 3.0% of injected ^238Pu | 53 ± 3.4% of injected ^238Pu |  |  |  |  |  |  |  | 
Cn1ccc(C(=O)NCCN(CCNC(=O)c2ccn(C)c(=O)c2O)CCN(CCNC(=O)c2ccn(C)c(=O)c2O)CCNC(=O)c2ccn(C)c(=O)c2O)c(O)c1=O [H(2,2)-Me-3,2-HOPO, N,N,N',N'-tetrakis[(3-hydroxyl-1-methyl-2-oxo-1,2-dihydropyridin-4-yl)carboxamido-ethyl]-ethylenediamine] |  |  |  |  |  |  |  | 3.8 ± 1.1^d percent of injected ^238Pu | 11 ± 1.7% of injected ^238Pu | 2.8 ± 1.6% of injected ^238Pu | 19 ± 2.9^d percent of injected ^238Pu | 45.3% of injected ^238Pu | 36% of injected ^238Pu | 1.3% of injected ^238Pu | no. of survivors [3, 4]: 5; percent control mean + SD: body weight [3, 4]: 92 ± 6 percent control; percent control mean + SD: plasma urea N [3, 4]: 223 ± 28 percent control; no. of survivors [3, 5]: 5; percent control mean + SD: body weight [3, 5]: 87 ± 9 percent control; percent control mean + SD: plasma urea N [3, 5]: 225 ± 188 percent control; no. of survivors [3, 9]: 3; percent control mean + SD: body weight [3, 9]: 94 ± 6 percent control; percent control mean + SD: plasma urea N [3, 9]: 169 ± 10 percent control

From patent publication EP0840727B1, “3-HYDROXY-2(1H)-[…] AGENTS” (priority 1995, dated 1997)
